How the values were obtained:
[1] = type: physicochemical
Source text: The manufacture of an amorphous solid dispersion containing VX-950 presented several challenges. […] Therefore, an appropriate solvent or solvent mixture is crucial to optimizing the processing and production of a solid dispersion.

[2] = Chemical reactivity of VX-950 with alcohol solvents; type: physicochemical; conditions: MeOH, EtOH, iPrOH
Source text: The manufacture of an amorphous solid dispersion containing VX-950 presented several challenges. […] Therefore, an appropriate solvent or solvent mixture is crucial to optimizing the processing and production of a solid dispersion. In preferred processes, the solvent includes a volatile solvent. In some embodiments, the solvent includes a mixture of volatile solvents. Preferable solvents include those that can dissolve both VX-950 and the polymers. Suitable solvents include those described above, for example, methylene chloride, acetone, etc. In more preferred processes, the solvent is a mixture of methylene chloride and acetone. The percent weight ratio of methylene chloride:acetone can be for example, about 100:0, about 90:10, about 80:20, about 70:30, about 60:40, and is preferably about 80:20 or about 70:30. The solvent or solvent mixture can also contain a non volatile solvent, such as glacial acetic acid. The organic acid or polar solvent solvent can be, e.g., up to about 5%, up to about 10%, or up to about 15% by weight of the solvent mixture. For example, a solvent mixture can contain a percent weight ratio of methylene chloride:acetone:glacial acetic acid of about 67:28:5 or 63:27:10. […] Such a solvent should not contain an OH group or a similarly reactive moiety. In these processes, therefore, a preferred solvent is other than an alcohol.

in vivo = conditions: rat, po

For CCC[C@H](NC(=O)[C@@H]1[C@H]2CCC[C@H]2CN1C(=O)[C@@H](NC(=O)[C@@H](NC(=O)c1cnccn1)C1CCCCC1)C(C)(C)C)C(=O)C(=O)NC1CC1 [VX-950], the aqueous solubility [1] was “virtually undetectable”, the “pH dependence of aqueous solubility” value [1] was “not pH-dependent” and the solubility in water [1] was “highly insoluble”. For the same molecule, the “solubility in water or most other conventional organic solvents” value [1] was “does not dissolve to a significant amount”, the “chemical reactivity with alcohols” value [2] was “has shown chemical reactivity with some alcohols” and the bioavailability (in vivo) was < 0.5%.

— patent publication US20100267744A1, “Pharmaceutical Compositions” (Vertex Pharmaceuticals Incorporated, priority 2006, published 2010)
